Tested on: RAW264.7
Assay: Antiresorptive activity in mouse RAW264.7 cells assessed as inhibition of tartrate-resistant acid phosphatase activity at 60 uM
Parameters: scale not given: the % may be the effect or the level left

## CCCCC/C(=N/S(=O)(=O)c1ccc(C)cc1)N1C(C)CCCC1C (stereo unspecified)
  Activity: 0%

From ChEMBL document CHEMBL1153225 (Bioorg Med Chem Lett, 2010)
